Measured values published in paper PMC11931445, “A Novel Compound QO‐83 Alleviates Acute and Chronic Epileptic Seizures in Rodents by Modulating KV7 Channel Activity” (CNS Neuroscience & Therapeutics, 2025).

Columns and labels:
PTZ-induced seizures = experiment: Metrazol maximal seizure (MMS) model; assay type: in vivo, C57BL/6J mice; details: 15 mg/kg
Experimental: For this experimental phase, male C57BL/6J mice weighing between 18 g and 25 g were randomly assigned to four groups based on their body weight. The QO‐83 group was divided into two subgroups, one receiving a dosage of 1 mg/kg (i.p.) and the other receiving a dosage of 3 mg/kg (i.p.).
PTZ (85 mg/kg, 0.1 mL per 10 g) was administered subcutaneously at the nape of the neck. Subsequently, mice were promptly placed in individual transparent observation chambers under quiet conditions. A stopwatch was utilized to measure seizure latency, defined as the time from PTZ injection to the onset of a generalized systemic clonic seizure and loss of the […]. The number of animals experiencing seizures was manually recorded.

KV7.1/KCNE1 channel = molecular target: T1, KV7.1/KCNE1 channel (Homo sapiens, UniProt P51787); experiment: Rb+ efflux high-throughput screening (ICR 8000); assay type: cell-based; details: up to 100 μM, transient expression in HEK293 cells
T1 construct: expressed in transfected cells; host or cells: HEK293, transient expression
Experimental: Furthermore, the KV7.1 channel, which co-expresses with the auxiliary subunit KCNE1 to form slowly activated delayed rectifier potassium currents (IKs) during cardiac repolarization, was evaluated using the Rb^+ efflux high-throughput screening technique to determine the opening activity of QO-83 on the KCNQ1/E1 channel.
[picture] Figure S3: The activation effect of QO-83 on the KV7 channels was preliminarily verified by high-throughput screening. (A)High-throughput screening for KV7.2/7.3 stable expressed in CHO cells (n = 6). (B)High-throughput screening for KV7.4 stable expressed in HEK293 cells (n = 6). (C) High-throughput screening for KCNQ1/E1 transient expression in HEK293 cells (n = 6).
The high-throughput screening experiment utilizing the ICR 8000 rubidium ion elution method aimed to assess the sensitivity of QO-83 towards KV7.2/3 and KV7.1 channels. Cells in the logarithmic growth phase were seeded into 96-well plates at a density of 2×10^5 cells per well. Following overnight incubation, the medium was replaced with 200 μL of RBCL-loaded buffer and incubated under controlled conditions (5% CO2, 37°C) for 3 hours. The loading buffer composition consisted of 5.4 mM RbCl, 5 mM Glucose, 25 mM HEPES, 150 mM NaCl, 1 mM MgCl2, 0.8 mM NaH2PO4•2H2O, and 2 mM CaCl2. […]

KV7.2/7.3 = molecular target: T2, KV7.2/7.3 (Homo sapiens, UniProt O43525+O43526); experiment: Manual patch clamp, KV7 currents; assay type: cell-based
T2 construct: expressed in transfected cells
Experimental: (§1) Pipettes (1–6 MΩ) were filled with a solution of KCl (145 mM), MgCl2 (1 mM), HEPES (10 mM), and EDTA (5 mM). The pH was adjusted to 7.2 with NaOH. Electrophysiological measurements were obtained using an AXON Multiclamp 700 B patch‐clamp amplifier. The bath solution contained NaCl (144 mM), KCl (5 mM), MgCl2 (1 mM), CaCl2 (2 mM), and D‐glucose (10 mM), with the pH adjusted to 7.4 using NaOH. The protocol involved an increase in voltage from −120 mV to 40 mV in increments of 10 mV to evoke a series of KV7 currents (1000 ms per pulse) in the bath solution. For details on cell culture, please see Appendix S1 2.2.1.
(§2) Statistical differences between multiple groups (mean ± SEM) were compared using one‐ or two‐way ANOVA. Electrophysiological data were analyzed using SPSS version 21 and OriginPro (version 9.1.0). P Peak inward currents obtained from activation protocols were calculated using the following equation: G = I/(Vm‐EK), where G is conductance, I is peak inward current, Vm is instantaneous membrane potential, and EK is equilibrium potential for the […] channel. Conductance data were normalized using maximum conductance and further fitted to the Boltzmann equation: G=Gmax+Gmin−Gmax/1+expVm−V1/2/k , where G is conductance, V1/2 is midpoint of activation, and k is slope factor. The “Spectrum” module of LabChart was used for data analysis of EEG signals, including the calculation of power density and averaging power spectral density (PSD).
(§3) Stable Chinese Hamster Ovary (CHO) cell lines expressing specific Kv7 channel subtypes, including KV7.2 and KV7.2/7.3, were cultured in Minimum Essential Medium (MEM) supplemented with 10% fetal calf serum, 1× nonessential amino acids, […], and […] hygromycin B. Concurrently, KV7.4 and KV7.5 channels were stably expressed in Human Embryonic Kidney 293A (HEK293A) cell lines and nurtured in Dulbecco's Modified Eagle Medium (DMEM) high glucose medium supplemented with 10% fetal bovine serum (FBS), […], and […] hygromycin B.

KV7.2 = molecular target: T3, KV7.2 (Homo sapiens, UniProt O43526); experiment: Manual patch clamp, KV7 currents; assay type: cell-based; details: KV7.2
T3 construct: expressed in transfected cells
Experimental: as §1, §2, §3

[1] = Colour stability of drug solutions; assay type: physicochemical; details: 10 μM in saline, 37°C, 30 days
Experimental: Both drugs were dissolved in saline at a concentration of 10 μM and maintained at a constant temperature of 37°C for 30 days.

electroshock seizures = experiment: Maximal electroshock seizure (MES) model; assay type: in vivo, Kunming mice; details: 15 mg/kg i.p.

CCOC(=O)Nc1ccc(NCc2ccc(F)cc2)cc1N [RTG, retigabine]
seizure protection rate (PTZ-induced seizures): 40% | opening activity on KV7.1/KCNE1 channel (KV7.1/KCNE1 channel): did not affect | activation curve V1/2 (KV7.2/7.3; 10.00 μM): -37.76 ± 2.34 mV | Activation τ (10 mV) (KV7.2/7.3; 10 μM, Mean ± SE): 205.66 ± 37.03 ms | Deactivation τ (-120 mV) (KV7.2/7.3; 10 μM, Mean ± SE): 154.46 ± 45.81 ms | activation curve V1/2 (KV7.2; 10.00 μM): -32.23 ± 1.89 mV | Activation τ (10 mV) (KV7.2; 10 μM, Mean ± SE): 259.60 ± 69.06 ms | Deactivation τ (-120 mV) (KV7.2; 10 μM, Mean ± SE): 102.04 ± 18.32 ms | color change of drug solution [1]: developed a distinct purple coloration | electroshock protection rate (electroshock seizures): 90%
